Tests used:
[1] = tested on: DLD1 cells (ATCC CCL-221); assay: Cell viability assay (CellTiter-Glo), DLD1 cells; assay type: cell-based; conditions: Homo sapiens, DLD-1 cells, 48 h incubation, second value of the cell, read-out: Cell Viability (μM) DLD-1 (concentration that decreases cell viability by 50%)
Description: (§1) Cells (A549 ATCC CCL-185) are cultured in Dulbecco's Modified Eagle's Medium plus 10% foetal calf serum and 2 mM L-glutamine at 37° C., 5% CO2. Cells are plated onto white clear bottom 96-well plates (5000 cells/well in 200 μl media) and left to adhere overnight at 37° C., 5% CO2. Next day, test compound (1 μl at 200× concentration in 100% DMSO) is added to give final test compound concentration 1× in 0.5% DMSO. After 48 h of incubation at 37° C., 5% CO2, 20 μl CellTiter-Glo reagent (Promega G7572) is added into each well. Plates are incubated at room temperature with shaking for 30 min and then luminescence is read using a PheraStar plate reader. The concentration of compounds that decrease cell viability by 50% is calculated from dose response curves generated using Dotmatics data analysis software.
In the DLD1 cell assay, cells (ATCC CCL-221) are cultured in RPMI-1640 medium plus 10% foetal calf serum and 2 mM L-glutamine at 37° C., 5% CO2.

[2] = target: T1, GST-human KRas166 (G12V) GPPNHP (Homo sapiens, UniProt P01116, G12V); assay: KRas small-molecule screening by SPR (BIACORE T200); assay type: binding; conditions: compound at final concentration of 100 uM; immobilised GST-KRAS166 (G12V) GPPNHP, GST reference channel
T1 construct: made in house; host or cells: E. coli C41(DE3)
Description: For SPR assays pGEX-KRAS(G12V) plasmid was transformed into E. coli C41(DE3). Bacterial cells were cultured at 37° C. to an OD600 of 0.6 and induced with IPTG (final 0.1 mM) at 18° C. overnight. The GST fusion proteins were extracted from bacteria pellets after cell disruption in 140 mM NaCl, 2.7 mM KCl, […], 1.8 mM KH2PO4, 1 mM EDTA, 2 mM MgCl2 pH 7.4 and purified by glutathione-sepharose column chromatography (GE Healthcare), eluting with 50 mM Tris-HCl pH8.0, 10 mM reduced glutathione, 1 mM DTT, 2 mM MgC2. The eluted proteins were dialysed against 50 mM Tris-HCl pH8.0, 1 mM DTT, 2 mM MgCl2 and concentrated to 10 mg/ml using a Biomax-30 […]-15 centrifugal filter device (Millipore). Purified KRAS protein was loaded with GPPNHP as described elsewhere (Pacold et al., 2000). Loaded protein was then purified by gel filtration on a HiLoad Superdex-75 HR column (GE Healthcare) in 1×PBS pH7.4, 5 mM MgCl2 and concentrated for storage.
To a previously immobilized CM5 chip (GE Healthcare BR-1005-30) with anti GST antibody via amine coupling method, GST in channel 1 and GST-human KRas166 (G12V) GPPNHP in channel 2 were immobilised. GST was immobilised between 2,000 and 5,000 Response units. KRAS166 (G12V) was immobilized between 10,000 to 15,000 Response Units.
In a 96 well plate, compounds were diluted in […], 5 mM MgCl2 and 5% DMSO Buffer to a final concentration of 100 uM. DCAI was used as positive control. Experiment also included a solvent correction curve for 5% DMSO. Screening and evaluation of the protein immobilization and the compounds screening was done accordingly to the BIACORE T200 control and evaluation software.
Protein immobilisation: 10,000 RU; average fragment 300 Da in size. Rmax=(MWA/MWL)×RL×SM MWA is the molecular weight of the analyte in Da MWL is the molecular weight of the ligand in Da RL is the immobilization level in RU SM is the molar stoichiometry (assume 1:1) Rmax=300/47,500×10,000×1 Rmax=63 RU. Cell Viability Assay protocols

[3] = tested on: H358 cells (ATCC CRL-5807); assay: Cell viability assay (CellTiter-Glo), H358 cells; assay type: cell-based; conditions: Homo sapiens, NCI-H358, 48 h incubation, first value of the cell, read-out: Cell Viability (μM) H358 (concentration that decreases cell viability by 50%)
Description: as §1
In the H358 cell assay, cells (ATCC CRL-5807) are cultured in RPM-1640 medium plus 10% foetal calf serum and 2 mM L-glutamine at 37° C., 5% CO2.

| IC50 [1] [µM] | SPR Response Units [2] [Response Units] | IC50 [3] [µM] | Structure (SMILES) |
| --- | --- | --- | --- |
| 12 | 66 | 57 | CN1CCN(Cc2cnc(C(=O)NC[C@@H]3COc4ccc(OCc5ccccc5)cc4O3)o2)CC1 [Example 4, 5-(4-Methyl-piperazin-1-ylmethyl)-oxazole-2-carboxylic acid ((R)-7-benzyloxy-2,3-dihydro-benzo[1,4]dioxin-2-ylmethyl)-amide] |
| 12 | 96 | 46 | COc1ccc(COc2ccc3c(c2)O[C@H](CNC(=O)c2ccc(CN4CCN(C)CC4)o2)CO3)cc1 [Example 22, 5-(4-Methyl-piperazin-1-ylmethyl)-furan-2-carboxylic acid [(R)-7-(4-methoxy-benzyloxy)-2,3-dihydro-benzo[1,4]dioxin-2-ylmethyl]-amide] |
| 3.5 | 86 | 35 | CN1CCN(Cc2ccc(C(=O)NC[C@@H]3COc4ccc(OCCc5ccccc5)cc4O3)o2)CC1 [Example 23, 5-(4-Methyl-piperazin-1-ylmethyl)-furan-2-carboxylic acid ((R)-7-phenethyloxy-2,3-dihydro-benzo[1,4]dioxin-2-ylmethyl)-amide] |
| 6.8 | 37 | 12.5 | Cc1ccc(COc2ccc3c(c2)O[C@H](CNC(=O)C2CCN(C)CC2)CO3)cc1 [Example 29, 1-Methyl-piperidine-4-carboxylic acid [(R)-7-(4-methyl-benzyloxy)-2,3-dihydro-benzo[1,4]dioxin-2-ylmethyl]-amide] |
| 3.9 | 64 | 16.2 | CN1CCC(C(=O)NC[C@@H]2COc3ccc(OCc4cccc(Cl)c4)cc3O2)CC1 [Example 30, 1-Methyl-piperidine-4-carboxylic acid [(R)-7-(3-chloro-benzyloxy)-2,3-dihydro-benzo[1,4]dioxin-2-ylmethyl]-amide] |
| 18 | – | > 100 | c1ccc(COc2ccc3c(c2)O[C@H](CNCC2CCOCC2)CO3)cc1 [Example 33, ((R)-7-Benzyloxy-2,3-dihydro-benzo[1,4]dioxin-2-ylmethyl)-(tetrahydro-pyran-4-ylmethyl)-amine] |
| 5 | – | 8 | CN1CCN(c2cccc(CNC[C@@H]3COc4ccc(OCc5ccccc5)cc4O3)c2)CC1 [Example 53, ((R)-7-Benzyloxy-2,3-dihydro-benzo[1,4]dioxin-2-ylmethyl)-[3-(4-methyl-piperazin-1-yl)-benzyl]-amine] |
| – | 75 | – | CN1CCC(N(C)C(=O)NC[C@@H]2COc3ccc(OCc4ccccc4)cc3O2)CC1 [Example 81, 3-(7-Benzyloxy-2,3-dihydro-benzo[1,4]dioxin-2-ylmethyl)-1-methyl-1-(1-methyl-piperidin-4-yl)-urea] |
| – | 63 | – | CN1CCN(C(=O)NC[C@@H]2COc3ccc(OCc4ccccc4)cc3O2)CC1 [Example 82, 4-methyl-piperazine-1-carboxylic acid ((R)-7-benzyloxy-2,3-dihydro-benzo[1,4]dioxin-2-ylmethyl)-amide] |

Continued, molecule first:

| Structure (SMILES) | IC50 [1] [µM] | SPR Response Units [2] [Response Units] | IC50 [3] [µM] |
| --- | --- | --- | --- |
| CN1CCC(C(=O)NC[C@@H]2COc3ccc(OCc4ccccc4)cc3O2)CC1 [Example 1, 1-methyl-piperidine-4-carboxylic acid ((R)-7-benzyloxy-2,3-dihydro-benzo[1,4]dioxin-2-ylmethyl)-amide] | 13 | 48 | 61 |
| CN1CCN(Cc2ccc(C(=O)NC[C@@H]3COc4ccc(OCc5ccccc5)cc4O3)o2)CC1 [Example 2, 5-(4-Methyl-piperazin-1-ylmethyl)-furan-2-carboxylic acid ((R)-7-benzyloxy-2,3-dihydro-benzo[1,4]dioxin-2-ylmethyl)-amide] | 10 | 224 | 43 |
| O=C(NC[C@@H]1COc2ccc(OCc3ccccc3)cc2O1)c1ncco1 [Example 3, Oxazole-2-carboxylic acid ((R)-7-benzyloxy-2,3-dihydro-benzo[1,4]dioxin-2-ylmethyl)-amide] | 20 | 12 | > 100 |
| CN1CCN(Cc2cccc(C(=O)NC[C@@H]3COc4ccc(OCc5ccccc5)cc4O3)c2)CC1 [Example 7, N-((R)-7-Benzyloxy-2,3-dihydro-benzo[1,4]dioxin-2-ylmethyl)-3-(4-methyl-piperazin-1-ylmethyl)-benzamide] | 10.5 | – | 19.2 |
| CN1CCC(C(=O)NC[C@@H]2COc3ccc(OCc4ccc(Cl)cc4)cc3O2)CC1 [Example 18, 1-Methyl-piperidine-4-carboxylic acid [(R)-7-(4-chloro-benzyloxy)-2,3-dihydro-benzo[1,4]dioxin-2-ylmethyl]-amide] | 5.4 | 61 | 10 |
| CN1CCN(Cc2ccc(C(=O)NC[C@@H]3COc4ccc(OCc5ccc(Cl)cc5)cc4O3)o2)CC1 [Example 24, 5-(4-Methyl-piperazin-1-ylmethyl)-furan-2-carboxylic acid [(R)-7-(4-chloro-benzyloxy)-2,3-dihydro-benzo[1,4]dioxin-2-ylmethyl]-amide] | 2.5 | 226 | 49 |
| CN1CCC(C(=O)NC[C@@H]2COc3ccc(OCc4ccc(F)c(F)c4)cc3O2)CC1 [Example 27, 1-Methyl-piperidine-4-carboxylic acid [(R)-7-(3,4-difluoro-benzyloxy)-2,3-dihydro-benzo[1,4]dioxin-2-ylmethyl]-amide] | 5.6 | 44 | 33.2 |
| Cc1cccc(COc2ccc3c(c2)O[C@H](CNC(=O)C2CCN(C)CC2)CO3)c1 [Example 28, 1-Methyl-piperidine-4-carboxylic acid [(R)-7-(3-methyl-benzyloxy)-2,3-dihydro-benzo[1,4]dioxin-2-ylmethyl]-amide] | 8.2 | 39 | 16.6 |
| c1ccc(COc2ccc3c(c2)O[C@H](CNCC2CCCNC2)CO3)cc1 (stereo partly drawn) [Example 58, ((R)-7-Benzyloxy-2,3-dihydro-benzo[1,4]dioxin-2-ylmethyl)-piperidin-3-ylmethyl-amine] | 13.8 | – | 14.7 |
| O=C1CN(c2ccccn2)C(=O)N1C[C@@H]1COc2ccc(OCc3ccccc3)cc2O1.O=CO [Example 78, 3-((R)-7-Benzyloxy-2,3-dihydro-benzo[1,4]dioxin-2-ylmethyl)-1-pyridin-2-yl-imidazolidine-2,4-dione] | – | 28 | – |
| CN1CCC(NC(=O)NC[C@@H]2COc3ccc(OCc4ccccc4)cc3O2)CC1 [Example 80, 1-(7-benzyloxy-2,3-dihydro-benzo[1,4]dioxin-2-ylmethyl)-3-(1-methyl-piperidin-4-yl)-urea] | – | 93 | – |
| NC[C@@H]1COc2ccc(OCc3ccccc3)cc2O1 [Example 86, C—((R)-7-Benzyloxy-2,3-dihydro-benzo[1,4]dioxin-2-yl)-methylamine] | – | 28 | – |
